Laboratory results as given in patent US8138168B1 (Takeda Pharmaceutical Company Limited, priority 2007, dated 2012).

Molecular target: T1, Recombinant human renin (Homo sapiens, UniProt P00797)
T1 construct: isolate the active form (residues 67-406); made in house; host or cells: FreeStyle 293-F cells (transient expression of pcDNA3.1(+)/hREN)
T1 sequence (P00797 67-406): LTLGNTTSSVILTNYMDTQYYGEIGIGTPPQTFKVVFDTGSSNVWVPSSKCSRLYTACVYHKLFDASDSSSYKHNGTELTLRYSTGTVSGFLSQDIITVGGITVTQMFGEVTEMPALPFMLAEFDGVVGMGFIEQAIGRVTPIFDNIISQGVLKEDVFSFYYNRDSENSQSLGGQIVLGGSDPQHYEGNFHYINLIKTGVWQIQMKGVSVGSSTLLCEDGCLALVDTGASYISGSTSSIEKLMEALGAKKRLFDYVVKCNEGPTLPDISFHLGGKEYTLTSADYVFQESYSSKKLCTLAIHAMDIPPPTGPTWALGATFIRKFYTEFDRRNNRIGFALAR
Test: In vitro enzymatic activity assay of renin inhibitors (fluorogenic peptide substrate)
Type: biochemical
Settings: isomers separated by preparative SFC; more or less active isomer as renin inhibitor
Procedure, shortened: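 Recombinant human renin (3 nM final) pre-incubated 10 min at 37 °C with compounds in pH 7.4 Hepes/EDTA/DTT/0.1 mg/mL BSA/Brij35 buffer (optionally plus 2% BSA), 5% DMSO final; fluorogenic QXL520/HiLyteFluo488 peptide substrate added.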

For “(R)-3-amino-4-(4-chlorophenyl)-1-((S)-3-hydroxy-3-(1-(3-methoxypropyl)-1H-benzo[d]imidazol-2-yl)piperidin-1-yl)butan-1-one [Compound 247]”, which “Eutomer / distomer designation of the separated stereoisomers” value is on record?
The value was “Eutomer”.

Same assay, conditions: read-out: IC50 of Exemplified Compounds Against Renin

Which IC50 does the source give for `CNC(=O)CCn1c([C@@H]2CCCN(C(=O)C[C@H](N)Cc3ccc(-c4ccc5c(c4)CCO5)cc3)C2)nc2c(C)cccc21` [Compound 501, 3-(2-((R)-1-((R)-3-amino-4-(4-(2,3-dihydrobenzofuran-5-yl)phenyl)butanoyl)piperidin-3-yl)-4-methyl-1H-benzo[d]imidazol-1-yl)-N-methylpropanamide] here?
The IC50 was 0.1 to 1 µM.

With `COCCCn1c([C@@H]2CCCN(C(=O)C[C@H](N)Cc3ccc4ccccc4c3)C2)nc2ccc(Cl)nc21` [Compound 502, (3R)-3-amino-1-(3-(5-chloro-3-(3-methoxypropyl)-3H-imidazo[4,5-b]pyridin-2-yl)piperidin-1-yl)-4-(naphthalen-2-yl)butan-1-one] as the compound, how does the IC50 read?
The IC50 was > 1 µM.

With `COCCCn1c([C@@H]2CCCN(C(=O)C[C@H](N)Cc3ccc4ccccc4c3)C2)nc2ccc(OC)nc21` [Compound 503, (3R)-3-amino-1-(3-(5-methoxy-3-(3-methoxypropyl)-3H-imidazo[4,5-b]pyridin-2-yl)piperidin-1-yl)-4-(naphthalen-2-yl)butan-1-one] as the compound, how does the IC50 read?
The IC50 was 0.1 to 1 µM.

How did the IC50 turn out when `COCCCn1c([C@@H]2CCCN(C(=O)C[C@H](N)Cc3ccc(-c4ccc(O)nc4)cc3)C2)nc2c(C)ccnc21` [Compound 504, (R)-3-amino-4-(4-(6-hydroxypyridin-3-yl)phenyl)-1-((R)-3-(3-(3-methoxypropyl)-7-methyl-3H-imidazo[4,5-b]pyridin-2-yl)piperidin-1-yl)butan-1-one] was run?
The IC50 was 0.1 to 1 µM.

How did the IC50 turn out when `COCCCn1c([C@@H]2CCCN(C(=O)C[C@H](N)Cc3ccc(-c4ccccc4)cc3)C2)nc2c(C)ccnc21` [Compound 505, (R)-3-amino-4-(biphenyl-4-yl)-1-((R)-3-(3-(3-methoxypropyl)-7-methyl-3H-imidazo[4,5-b]pyridin-2-yl)piperidin-1-yl)butan-1-one] was run?
The IC50 was < 0.1 µM.

For `COCCCn1c([C@@H]2CCCN(C(=O)[C@@H]3CN(c4cccc(C#N)c4)C[C@H]3N)C2)nc2ccccc21` [Compound 507], which IC50 is on record?
The IC50 was 0.1 to 1 µM.

Which IC50 does the source give for `COCCCn1c([C@@H]2CCCN(C(=O)[C@@H]3CN(c4ccc([N+](=O)[O-])cc4)C[C@H]3N)C2)nc2ccccc21` [Compound 508, ((3R,4S)-4-amino-1-(4-nitrophenyl)pyrrolidin-3-yl)((R)-3-(1-(3-methoxypropyl)-1H-benzo[d]limidazol-2-yl)piperidin-1-yl)methanone] here?
Its IC50 is 0.1 to 1 µM.

For `Nc1ncc(-c2ccc(C[C@@H](N)CC(=O)N3CCC[C@@H](c4nc5ccccc5n4CCF)C3)cc2)cn1` [Compound 509, (R)-3-amino-4-(4-(2-aminopyrimidin-5-yl)phenyl)-1-((R)-3-(1-(2-fluoroethyl)-1H-benzo[d]imidazol-2-yl)piperidin-1-yl)butan-1-one], which IC50 is on record?
The IC50 was 0.1 to 1 µM.
